What is called IC50 is the point on the concentration scale where inhibition reaches its midpoint. By EC50 is commonly meant the concentration that produces a half-maximal response. By AC50 is commonly meant the concentration giving half of the maximal activity seen.

This note sets out measurements from ChEMBL document CHEMBL1201862, “PubChem BioAssay data set” (2004).

In one data set the target is Phospholipase A2 (Homo sapiens, UniProt P04054). In kind it is functional.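 Also: confirmatory dose-response counterscreen on phospholipase A2, testing hits that came from an ultra-high-throughput screen for ATG4B inhibitors.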
Another data set deals with T1, Protein RecA (Mycobacterium tuberculosis, UniProt P9WHJ3).
T1 sequence (P9WHJ3 whole entry): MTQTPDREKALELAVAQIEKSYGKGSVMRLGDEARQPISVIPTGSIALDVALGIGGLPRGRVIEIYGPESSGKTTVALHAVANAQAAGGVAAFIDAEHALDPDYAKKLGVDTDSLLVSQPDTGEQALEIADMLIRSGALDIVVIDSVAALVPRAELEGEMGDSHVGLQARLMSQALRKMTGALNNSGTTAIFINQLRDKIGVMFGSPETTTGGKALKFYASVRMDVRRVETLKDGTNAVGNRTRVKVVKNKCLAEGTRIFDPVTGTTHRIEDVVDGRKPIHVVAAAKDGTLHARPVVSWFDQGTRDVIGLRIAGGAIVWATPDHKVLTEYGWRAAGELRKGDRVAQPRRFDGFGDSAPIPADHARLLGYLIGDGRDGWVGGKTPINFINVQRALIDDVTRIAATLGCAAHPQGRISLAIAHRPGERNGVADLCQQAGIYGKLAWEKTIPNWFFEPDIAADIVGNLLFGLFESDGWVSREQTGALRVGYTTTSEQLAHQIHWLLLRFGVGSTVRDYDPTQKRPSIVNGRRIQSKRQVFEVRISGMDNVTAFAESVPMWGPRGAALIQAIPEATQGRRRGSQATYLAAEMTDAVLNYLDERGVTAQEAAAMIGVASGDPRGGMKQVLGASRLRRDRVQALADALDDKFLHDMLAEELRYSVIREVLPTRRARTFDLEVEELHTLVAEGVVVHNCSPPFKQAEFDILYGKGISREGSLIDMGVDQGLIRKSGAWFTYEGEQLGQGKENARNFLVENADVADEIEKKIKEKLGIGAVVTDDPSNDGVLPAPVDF
Description: Fluorescence Cell-Free Homogeneous Dose Retest to Identify Inhibitors of RecA-Intein Splicing Activity. [Related pubchem assays (depositor defined):AID2097, AID2223, AID489010, AID492950]. In kind it is functional.

The target in data set [1] is T2, Replicative DNA helicase DnaB (Mycobacterium tuberculosis, UniProt P9WMR3).
T2 sequence (P9WMR3 whole entry): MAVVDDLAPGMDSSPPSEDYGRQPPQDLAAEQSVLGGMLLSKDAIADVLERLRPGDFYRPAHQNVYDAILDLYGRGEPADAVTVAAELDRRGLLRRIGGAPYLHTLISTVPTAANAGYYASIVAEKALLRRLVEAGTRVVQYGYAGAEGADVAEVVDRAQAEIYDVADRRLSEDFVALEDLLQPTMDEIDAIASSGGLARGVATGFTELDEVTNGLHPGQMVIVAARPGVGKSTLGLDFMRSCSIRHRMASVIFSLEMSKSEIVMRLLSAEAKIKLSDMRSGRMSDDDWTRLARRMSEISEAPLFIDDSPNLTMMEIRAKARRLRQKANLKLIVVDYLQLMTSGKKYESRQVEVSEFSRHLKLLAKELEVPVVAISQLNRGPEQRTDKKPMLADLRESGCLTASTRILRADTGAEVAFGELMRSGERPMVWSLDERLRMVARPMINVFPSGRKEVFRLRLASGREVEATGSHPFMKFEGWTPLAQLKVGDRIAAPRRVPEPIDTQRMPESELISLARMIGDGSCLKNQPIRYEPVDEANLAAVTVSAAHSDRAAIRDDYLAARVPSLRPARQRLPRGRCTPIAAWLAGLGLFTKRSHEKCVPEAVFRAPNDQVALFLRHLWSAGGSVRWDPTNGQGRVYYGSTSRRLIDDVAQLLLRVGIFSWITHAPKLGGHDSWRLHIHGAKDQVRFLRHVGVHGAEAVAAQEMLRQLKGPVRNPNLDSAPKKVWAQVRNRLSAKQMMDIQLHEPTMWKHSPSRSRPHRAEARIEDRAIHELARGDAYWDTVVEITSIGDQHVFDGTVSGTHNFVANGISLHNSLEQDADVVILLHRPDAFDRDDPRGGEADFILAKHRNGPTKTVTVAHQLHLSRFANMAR
Briefly: DnaB intein splicing inhibitors, dose response, biochemical, cell-free fluorescence (AID 449749). It counts as functional.

Another data set addresses T3, Cysteine protease ATG4B (Homo sapiens, UniProt Q9Y4P1).
T3 sequence (Q9Y4P1 whole entry): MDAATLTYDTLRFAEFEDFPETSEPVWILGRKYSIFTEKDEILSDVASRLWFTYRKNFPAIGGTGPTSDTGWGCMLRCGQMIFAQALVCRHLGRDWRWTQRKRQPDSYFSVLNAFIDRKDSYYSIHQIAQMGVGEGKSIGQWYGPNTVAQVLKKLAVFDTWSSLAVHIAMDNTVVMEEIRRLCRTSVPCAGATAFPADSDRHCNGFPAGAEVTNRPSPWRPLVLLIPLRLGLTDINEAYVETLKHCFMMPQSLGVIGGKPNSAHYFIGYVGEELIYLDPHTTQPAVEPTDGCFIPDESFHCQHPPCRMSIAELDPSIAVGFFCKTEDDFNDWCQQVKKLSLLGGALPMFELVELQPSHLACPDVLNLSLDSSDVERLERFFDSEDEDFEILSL
In kind it is functional.

For a further data set, the system named is Vero. Briefly: cells. It counts as functional. As to conditions: Chlorocebus sabaeus.
A short description of data set [2]: Trypanosoma cruzi growth suppression in host cells – NIH3T3 host cells, beta-gal luminescence, confirmation (AID 2044).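 Also: intracellular parasites grown in NIH/3T3 mouse fibroblasts as host cells; luminescent beta-galactosidase reporter signal from transgenic T. cruzi replicating inside host cells; inhibitors lower the luminescence signal.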 In kind it is functional, cell-based.
Data set [3] is described as follows: NIH3T3 cell viability loss – ATP luminescence, mouse fibroblasts, counter-screen, dose response (AID 2010).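 Also: cells exposed to compound for about 90 hours before reading.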 It counts as functional, cell-based. Background: The purpose of a counterscreen is to sort out artefacts and off-target activity.
The target in the next data set is Cytochrome P450 2C9 (Homo sapiens, UniProt P11712).
In the next data set the target is Cytochrome P450 2D6 (Homo sapiens, UniProt P10635).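 Also: CYP2D6 member of a cytochrome P450 panel assay.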
A short description of data set [4]: non-specific 3'UTR reporter inhibition in Clone20-Shn3RL – cell-based, Renilla luciferase, cherry-picked, counter-screen for Shn3 inhibitor project, dose response (AID 624133). It counts as functional.
Data set [5] can be described thus: reduction of Shn3 3'UTR-driven luciferase in osteoblasts – cell-based, Clone20 osteoblasts, firefly luciferase, cherry-picked, dose response (AID 624132).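 Also: firefly luciferase luminescence from reporter carrying the Shn3 3'UTR in osteoblasts.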 It counts as functional.
Data set [6] can be described thus: loss of viability in HepG2 cells – cell-based, CellTiter-Glo, cherry-picked, cytotoxicity control for Shn3 inhibitor project, dose response (AID 624134). It counts as functional. A general note: In ATP-based viability assays light output follows the ATP content of the culture.
For data set [7], the target named is Glyceraldehyde-3-phosphate dehydrogenase (Homo sapiens, UniProt P04406).
A short description of data set [8]: viability of PTEN-deleted HCT116 cells – cell-based, HCT116 PTEN knockout, dose response (AID 1047).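 Also: HCT116 colon tumor cells with PTEN knocked out; cells exposed to compound for 60 hours before readout; potency for loss of cell viability measured by luminescence.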 It counts as functional.
Data set [9] is described as follows: microbe, parasite or virus in culture. It counts as functional. The note with it: Mycobacterium tuberculosis.
Data set [10] is described as follows: viability of HCT116 lacking mutant beta-catenin – cell-based, human colon tumor, dose response (AID 1045).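 Also: HCT116 colon tumor cells with beta catenin knocked out; cells exposed to compound for 60 hours.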 It counts as functional.
A further data set deals with Paired box protein Pax-8 (Homo sapiens, UniProt Q06710). Description: PAX8 transcriptional activity inhibition in RMG-I – RMG-I cells, luciferase, cherry-pick, dose response (AID 687027).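 Also: luciferase reporter driven by Pax8 target thyroperoxidase promoter measured by SteadyGlo luminescence.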 In kind it is functional, cell-based.

Activity calls are given as the source filed them.

Phospholipase A2, sequence (P04054 whole entry): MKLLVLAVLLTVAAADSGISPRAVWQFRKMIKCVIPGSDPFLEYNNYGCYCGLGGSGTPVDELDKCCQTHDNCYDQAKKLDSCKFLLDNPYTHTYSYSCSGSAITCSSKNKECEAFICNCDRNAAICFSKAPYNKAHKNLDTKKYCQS
Cytochrome P450 2C9, sequence (P11712 whole entry): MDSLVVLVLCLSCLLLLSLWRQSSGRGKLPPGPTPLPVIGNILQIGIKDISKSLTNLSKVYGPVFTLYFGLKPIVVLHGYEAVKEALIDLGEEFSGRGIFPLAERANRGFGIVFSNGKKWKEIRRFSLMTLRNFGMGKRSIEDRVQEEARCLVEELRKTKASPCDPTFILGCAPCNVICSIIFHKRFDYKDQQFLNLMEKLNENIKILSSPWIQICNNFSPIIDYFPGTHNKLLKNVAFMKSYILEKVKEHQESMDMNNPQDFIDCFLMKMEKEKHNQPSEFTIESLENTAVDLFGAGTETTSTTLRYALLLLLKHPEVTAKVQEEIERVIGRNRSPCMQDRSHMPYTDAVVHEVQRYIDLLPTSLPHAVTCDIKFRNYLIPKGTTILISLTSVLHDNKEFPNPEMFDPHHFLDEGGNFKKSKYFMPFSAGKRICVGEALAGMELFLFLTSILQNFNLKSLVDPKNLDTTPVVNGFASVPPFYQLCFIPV
Paired box protein Pax-8, sequence (Q06710 whole entry): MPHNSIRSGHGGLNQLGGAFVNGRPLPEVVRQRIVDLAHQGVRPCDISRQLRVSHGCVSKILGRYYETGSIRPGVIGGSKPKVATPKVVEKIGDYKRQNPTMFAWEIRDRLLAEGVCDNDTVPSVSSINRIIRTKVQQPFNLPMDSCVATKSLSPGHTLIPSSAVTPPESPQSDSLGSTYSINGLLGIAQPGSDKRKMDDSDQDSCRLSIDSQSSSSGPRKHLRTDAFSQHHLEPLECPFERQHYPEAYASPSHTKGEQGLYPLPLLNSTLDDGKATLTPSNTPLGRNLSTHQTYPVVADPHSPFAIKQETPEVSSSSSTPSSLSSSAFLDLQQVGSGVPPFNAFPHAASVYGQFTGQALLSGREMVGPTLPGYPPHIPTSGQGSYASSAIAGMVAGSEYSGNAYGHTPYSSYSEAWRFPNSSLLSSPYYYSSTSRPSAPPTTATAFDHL
Cytochrome P450 2D6, sequence (P10635 whole entry): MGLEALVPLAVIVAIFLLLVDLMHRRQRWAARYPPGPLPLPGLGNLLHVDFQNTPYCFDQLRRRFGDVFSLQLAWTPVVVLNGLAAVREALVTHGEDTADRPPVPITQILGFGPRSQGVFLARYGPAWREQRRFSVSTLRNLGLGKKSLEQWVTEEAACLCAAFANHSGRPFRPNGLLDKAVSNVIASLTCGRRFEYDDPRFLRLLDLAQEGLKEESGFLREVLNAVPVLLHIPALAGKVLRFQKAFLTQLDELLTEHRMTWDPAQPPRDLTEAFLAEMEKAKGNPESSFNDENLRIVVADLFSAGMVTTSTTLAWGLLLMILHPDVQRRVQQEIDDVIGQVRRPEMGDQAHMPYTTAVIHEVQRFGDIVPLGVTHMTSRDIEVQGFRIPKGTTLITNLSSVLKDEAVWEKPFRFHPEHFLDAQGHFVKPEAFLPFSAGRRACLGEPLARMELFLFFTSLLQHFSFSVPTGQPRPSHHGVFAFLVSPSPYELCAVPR
Glyceraldehyde-3-phosphate dehydrogenase, sequence (P04406 whole entry): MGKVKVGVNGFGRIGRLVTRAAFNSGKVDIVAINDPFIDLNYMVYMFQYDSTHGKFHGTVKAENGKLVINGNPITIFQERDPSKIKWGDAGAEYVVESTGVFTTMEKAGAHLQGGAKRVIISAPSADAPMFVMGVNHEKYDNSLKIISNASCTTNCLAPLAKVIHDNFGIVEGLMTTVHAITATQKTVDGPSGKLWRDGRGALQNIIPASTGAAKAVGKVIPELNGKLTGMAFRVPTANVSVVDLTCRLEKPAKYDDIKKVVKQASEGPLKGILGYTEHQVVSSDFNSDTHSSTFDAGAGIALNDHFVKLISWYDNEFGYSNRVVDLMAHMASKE

Consider `Cc1ccc(-c2[nH]nc3c2C(c2ccc(OC(=O)N4CCOCC4)cc2)C(C#N)=C(N)O3)cc1` (stereo unspecified), for which the IC50 is 11.7 µM (active) on Phospholipase A2 and 15.8 µM (active) on Cysteine protease ATG4B. Moreover, on Protein RecA, the concentration for a half-maximal effect (EC50) is 1.18 µM (active). Also, in [1], the AC50 is 4.61 µM (active).

In the case of `CC(C)(C)c1ccc(C(=O)C2CCCN(C(=O)c3ccccn3)C2)cc1` (stereo unspecified), the IC50 on Phospholipase A2 was 11.5 µM (active); at Cysteine protease ATG4B, 15.1 µM (active).

For the molecule `O=C(c1ccc(-n2c(SCc3cccc(F)c3)nc3ccccc3c2=O)cc1)N1CCOCC1`, the results for the half-maximal inhibitory concentration (IC50) at Phospholipase A2 and on Cysteine protease ATG4B were 8.49 µM (active) and 10.1 µM (active), respectively.

In the case of `CNc1ncnc(Sc2ccc(Cl)cc2)c1[N+](=O)[O-]`, the CC50 with Vero was > 25 µM (active). Moreover, the results for the EC50 in data set [2] and in data set [3] were 3.2 µM (active) and > 60 µM (not active), respectively.

Take `COc1cc(C2C3=C(COC3=O)Oc3cc4c(cc32)OCO4)cc(OC)c1OC` (stereo unspecified): in the data set on Vero, the CC50 was < 0.05 µM (active).

`Cc1cccc(NC(S)=NNC(=O)c2csc3c2CCCC3)c1`: the AC50 entry at Cytochrome P450 2C9 is “inconclusive”; at Cytochrome P450 2D6, 25.1 µM (inconclusive). Moreover, the results for the IC50 on Phospholipase A2 and on Cysteine protease ATG4B were 13.2 µM (active) and 11.2 µM (active), respectively.

Turning to `Cc1ccc(NC(=O)CSc2nn(-c3ccccc3)c(=S)s2)cc1S(=O)(=O)N(C)C`, the AC50 in [4] was 55.6 µM (active); in data set [5], 5.82 µM (active); in data set [6] it was 45.6 µM (active).

Turning to `O=C(O)Cc1ccc(/C(=N\O)c2cccs2)s1`, the IC50 in [7] is > 100 µM (not active).

Regarding `NC(c1csc(NC(=O)Nc2cccc(C(F)(F)F)c2)n1)C1CCCCC1` (stereo unspecified), the AC50 in data set [4] was 7.42 µM (active); in [5] it was 4.81 µM (active); in data set [6], 11.3 µM (active).

For the molecule `CCOC(=O)c1c(NC(=O)COC(=O)c2ccc(S(=O)(=O)C(F)F)cc2)sc(C(=O)N(C)C)c1C`, in the data set on Vero, the CC50 was > 25 µM (active).

Regarding `COC(=O)N/N=C/c1cn(CCCOc2ccc(C)cc2)c2ccccc12`, the IC50 was 7.39 µM (active) at Phospholipase A2 and 10.3 µM (active) at Cysteine protease ATG4B.

Turning to `C=C1C(=O)[C@@]23[C@H](O)C[C@@H]4C(C)(C)CC[C@H](O)[C@@]4(C)[C@@H]2CC[C@@H]1[C@H]3O` [KAMEBANIN], the AC50 is 4.85 µM (active) in data set [4], 1.29 µM (active) in data set [5], 26.3 µM (active) in [6] and 1.16 µM (active) at Paired box protein Pax-8. The concentration for a half-maximal effect (EC50) in data set [8] is 1.17 µM (active); in data set [10], 1.02 µM (active). For the same molecule, in data set [9], the CC50 is 5.73 µM (active).

Consider `O=C1OC[C@H](Cc2ccc3c(c2)OCO3)/C1=C\c1ccc2c(c1)OCO2` [SAVININ], for which the figures for the AC50 in [4], in data set [5] and in [6] were 23.1 µM (active), 2.66 µM (active) and 59.8 µM (active), respectively.
